Measurements published in patent US9353075B2, “Disubstituted beta-lactones as inhibitors of N-acylethanolamine acid amidase (NAAA)” (The Regents of the University of California, priority 2011, dated 2016).

Columns and labels:
DNFB-induced scratching = DNFB-induced scratching in mice; format: in vivo, mouse; conditions: topical, single dose
Description: The methods included the following. Dermatitis was produced in mice using 2-4 dinitrofluorobenzene (DNFB) as described by Buckley and Nijkamp (1994), Am J Respir Grit Care Med 149:400-7. Mice were sensitized on two consecutive days with a 0.5% DNFB solution applied to the shaved abdomen. At day 8, the ears were challenged with a 0.2% DNFB solution. Ear thickness was determined by using a micrometer. Scratching was evaluated as number of episodes per 60 minutes period. Data were analysed by ANOVA followed by the Bonferroni's test. See also Hargreaves K, et al (1988), Pain 32: 77-88 for related information.
The methods include the following. Itching in mice was induced with DNFB as previously described. Additional studies were done with 48/80 model (an inducer of mast cell degranulation). 48/80 was given subcutaneously (30 mg per kg). Data were analysed by ANOVA followed by Bonferroni's test for multiple comparisons.

[1] = system: 48/80-induced scratching (mast cell degranulation); assay: Compound 48/80-induced scratching in mice; format: in vivo, mouse; conditions: topical, single dose, 48/80 30 mg per kg s.c.
Description: The methods include the following. Itching in mice was induced with DNFB as previously described. Additional studies were done with 48/80 model (an inducer of mast cell degranulation). 48/80 was given subcutaneously (30 mg per kg).

r-NAAA = r-NAAA (Rattus norvegicus (Rat), UniProt Q5KTC7); assay: r-NAAA inhibition, rat lung lysosomal NAAA preparation, UPLC/MS; format: biochemical
r-NAAA, sequence (Q5KTC7 34-362): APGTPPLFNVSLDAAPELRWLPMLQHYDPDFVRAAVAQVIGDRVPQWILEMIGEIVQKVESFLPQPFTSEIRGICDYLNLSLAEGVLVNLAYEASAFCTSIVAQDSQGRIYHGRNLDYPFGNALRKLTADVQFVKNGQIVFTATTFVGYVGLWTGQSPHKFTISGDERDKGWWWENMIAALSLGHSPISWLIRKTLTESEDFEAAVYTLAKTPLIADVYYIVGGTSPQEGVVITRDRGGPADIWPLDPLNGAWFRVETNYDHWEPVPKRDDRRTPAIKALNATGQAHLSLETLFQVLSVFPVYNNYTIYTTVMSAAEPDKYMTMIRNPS
How it was run: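 Substrate was 50 μM heptadecenoylethanolamide, incubated 30 min at 37 °C after a 30 min compound preincubation at pH 4.5 with 1% Triton-X and 3 mM DTT. The enzyme source was rat lung lysosomal preparation. IC50 came from curve fitting of reduced heptadecenoic acid product, measured by negative-mode UPLC/MS versus vehicle.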

Acid Ceramidase (AC) = Acid Ceramidase (AC) (Rattus norvegicus (Rat), UniProt Q6P7S1); assay: Acid ceramidase inhibition, recombinant rat AC, LC-MS; format: biochemical; conditions: read-out: r-AC % inhib. @ 10 μM
Acid Ceramidase (AC), sequence (Q6P7S1 21-394): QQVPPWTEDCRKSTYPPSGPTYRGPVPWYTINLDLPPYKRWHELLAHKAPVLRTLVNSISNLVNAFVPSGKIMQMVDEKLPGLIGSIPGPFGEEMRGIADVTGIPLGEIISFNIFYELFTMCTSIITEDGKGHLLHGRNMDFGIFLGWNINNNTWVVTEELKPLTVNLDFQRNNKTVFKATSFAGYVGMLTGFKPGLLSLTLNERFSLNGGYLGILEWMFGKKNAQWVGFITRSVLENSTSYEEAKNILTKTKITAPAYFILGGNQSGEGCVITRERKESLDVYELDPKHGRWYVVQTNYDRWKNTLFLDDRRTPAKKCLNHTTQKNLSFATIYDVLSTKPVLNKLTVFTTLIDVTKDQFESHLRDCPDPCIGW
Description: The PCR (High Fidelity PCR Master, Roche) product was subcloned into a pEF6-[…] vector (Invitrogen) to construct a mammalian expression vector encoding […]-tagged rat AC. HEK293 cells were transfected with pEF6-rAC-[…] using Super-Fect reagent (Qiagen) and screened with G418 (0.3 mg/mL). Cells were suspended in 20 mM Tris HCl (pH 7.5) containing 0.32M sucrose, sonicated and centrifuged at 800×g for 15 minutes at 4° C. The supernatants were centrifuged again at 12,000×g for 30 minutes at 4° C. The pellets were suspended in phosphate-buffered saline (PBS) and subjected to 2 freeze-thaw cycles at -80° C. The suspensions were centrifuged at 105,000×g for 1 hour at 4° C. The supernatants containing recombinant AC were kept at -80° C. until use. Protein concentration was measured using the bicinchoninic acid (BCA) assay (Pierce). […] Reactions were stopped by addition of a mixture of chloroform/methanol (2:1, vol/vol) containing 1 nmol of heptadecanoic acid (HDA; NuChek Prep). […] HDA was eluted on an XDB Eclipse C18 column isocratically at 2.2 mL/min for 1 minute with a solvent mixture of 95% methanol and 5% water, both containing 0.25% acetic acid and 5 mM ammonium acetate. The column temperature was 50° C. Electrospray ionization (ESI) was in the negative mode, capillary voltage as 4 kV, and fragmentor voltage was 100 V. N2 was used as drying gas at a flow rate of 13 L/min and a temperature of 350° C. Nebulizer pressure was set at 60 psi. We monitored [M-H]- in the selected-ion monitoring (SIM) mode using HDA as internal standard. Calibration curves were generated using commercial lauric acid (Nu-Chek Prep; m/z=199).

[2] = Chemical stability in PBS buffer pH 7.4; format: physicochemical; conditions: phosphate-buffered saline, 0.01M PBS pH 7.4, 37° C., read-out: Stability in PBS buffer, pH 7.4 t1/2
Description: Chemical stability of select compounds was evaluated under physiological pH conditions (0.01M Phosphate-Buffered Saline, pH 7.4) for up to 24 h. Stock solutions of each compound (10 mM) were prepared freshly in DMSO. Each compound was incubated at a final concentration of 10 μM (1% DMSO) in pre-heated buffer (0.01M Phosphate-Buffered Saline (PBS), pH 7.4 at 37° C.). The sample solutions were divided into aliquots in glass vials (pre-heated at 37° C.) for each time point. The samples were maintained at 37° C. in the UPLC/MS Autosampler during the study (no shaking). A reference solution of each compound (final concentration: 10 μM at 1% DMSO) in pre-heated CH3CN (37° C.) was prepared from the stock solutions (10 mM in DMSO). The reference solutions were maintained at 37° C. in the UPLC/MS Autosampler during the study (no shaking). An internal standard (100 nM) was added to the sample and reference solutions. For each time point, the samples were analyzed directly by LC/MS without any further sample preparation. The samples were analyzed (triplicate injection) by monitoring the MS trace by Multiple Reaction Monitoring (MRM). The compound concentration (expressed as %) was calculated by dividing the peak area at each time point by the peak area at t=0 min. The reference solution was analyzed at the beginning (t=0 min.), and at the end of the study (t=24 h). The apparent half-lives (t1/2) of the disappearance of compound were calculated by a one-phase decay equation using a non-linear regression of compound concentration versus time.
The analyses were performed on a Waters ACQUITY UPLC/MS TQD system consisting of a TQD (Triple Quadropole Detector) Mass Spectrometer equipped with an Electrospray Ionization interface and a Photodiode Array Detector. The analyses were run on an ACQUITY UPLC BEH C18 1.7 μm 2.1×50 mm column with a VanGuard BEH C18 1.7 μm pre-column at 40° C. The mobile phase was 0.1% HCOOH in H2O (A) and 0.1% HCOOH in CH3CN (B) using a linear gradient: 0-0.2 min.: 5% B, 0.2-2.2 min.: 5-95% B, 2.2-2.3 min.: 95-5% B, 2.3-3 min.: 5% B with flow rate at 0.5 mL/min. […]

IC50 (r-NAAA) | inhibition at 10 µM (Acid Ceramidase (AC)) | half-life at 10 μM [2] | Compound | DNFB-induced scratching (DNFB-induced scratching) | 48/80-induced scratching [1]
 |  |  | C[C@@H]1C[C@H]2[C@@H]3CCC4=CC(=O)C=C[C@]4(C)[C@@]3(F)[C@@H](O)C[C@]2(C)[C@@]1(O)C(=O)CO [dexamethasone, reference compound] | increased scratching | without effect
540 nM | < 10% | 63 min | C[C@@H]1OC(=O)[C@@H]1NC(=O)CCCCCCc1ccccc1 [corresponding amide analog, reference compound] |  | 
 |  | 23 min | O=C(N[C@H]1COC1=O)OCCCCCc1ccccc1 |  | 
